# Biological target: T1, 5'-nucleotidase (Rattus norvegicus, UniProt P21588)
# T1 sequence (P21588 whole entry): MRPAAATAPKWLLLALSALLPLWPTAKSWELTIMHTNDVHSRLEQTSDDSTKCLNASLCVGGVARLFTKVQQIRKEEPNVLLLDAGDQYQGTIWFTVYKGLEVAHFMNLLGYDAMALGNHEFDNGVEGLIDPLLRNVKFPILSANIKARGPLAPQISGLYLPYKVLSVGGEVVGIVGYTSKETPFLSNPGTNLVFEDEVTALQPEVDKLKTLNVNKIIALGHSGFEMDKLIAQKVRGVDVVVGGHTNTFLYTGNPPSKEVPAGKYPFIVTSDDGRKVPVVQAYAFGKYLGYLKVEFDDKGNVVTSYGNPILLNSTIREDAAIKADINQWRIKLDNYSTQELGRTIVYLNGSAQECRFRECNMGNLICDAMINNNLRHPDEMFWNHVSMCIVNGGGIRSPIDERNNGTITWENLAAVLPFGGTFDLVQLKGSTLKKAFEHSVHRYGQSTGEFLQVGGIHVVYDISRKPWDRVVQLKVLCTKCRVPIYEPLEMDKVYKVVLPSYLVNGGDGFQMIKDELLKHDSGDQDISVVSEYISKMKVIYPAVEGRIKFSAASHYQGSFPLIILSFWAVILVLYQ
smiles,measurement,value
COc1cccc(OC)c1-c1cc(C(=O)NC2(C(=O)O)C3CC4CC(C3)CC2C4)nn1-c1ccnc2cc(Cl)ccc12 (stereo unspecified),Ki,124 nM

# From BindingDB's records for doi:10.1016/s0014-2999(97)01510-0 (Hospital Saint-Antoine, 1998)
